# In patent US20260115250A1, “METHODS OF TREATING AGE-RELATED MACULAR DEGENERATION” (Character Biosciences, Inc., priority 2022, published 2026):
# Peptide text beside a SMILES is read from it.
# Key:
# [1] = DMPC solubility assay, 0.5 mM DMPC (turbidity reduction); assay type: biochemical
# Method in brief: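 Peptides (100 μM final, or 3.16-100 μM for titrations) incubated with 0.5 mM DMPC in water for 15 minutes at room temperature. Turbidity read as absorbance at 405 nm; EC50 from non-linear regression, mean+SD over two runs.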
# HepG2 cells = assay: HepG2 GAG dependent cholesterol import (with or without heparin); assay type: cell-based; details: HepG2, 10 μM peptide, with or without 100 μg/mL heparin
# Experimental: HepG2 cells were seeded on 96-well plates at 10,000 cells per well and grown to confluence. A 2× solution of 500 μM DMPC and 50 μM BODIPY-Cholesterol with or without 100 μg/mL heparin was prepared in serum free EMEM. Peptides were diluted to 20 μM in serum-free EMEM (a 2× solution). Peptides were added to lipid solution in equal parts (60 μL each) and incubated for 1 hour at 37° C. HepG2 cells were serum starved in serum-free EMEM for 1 hour at 37° C. Peptide: Lipid complexes (100 μL total volume per well) were transferred to HepG2 cells for 2 hours at 37° C. Cells were washed, fixed, and intracellular fluorescence was read on Promega GloMax at 475 nm excitation, 500-550 emission. Fluorescence values were background corrected from no treatment conditions. Data are presented ±SD for 2 runs.
smiles,measurement,setting,value
CC[C@H](C)[C@H](NC(=O)CNC(=O)[C@H](CO)NC(=O)[C@@H](NC(=O)[C@H](Cc1c[nH]c2ccccc12)NC(=O)[C@H](Cc1c[nH]cn1)NC(=O)[C@H](CCC(=O)O)NC(=O)[C@H](Cc1ccccc1)NC(=O)[C@H](CCCNC(=N)N)NC(=O)[C@H](CC(C)C)NC(=O)[C@H](CC(C)C)NC(=O)[C@H](CCCNC(=N)N)NC(=O)[C@H](CCCCN)NC(=O)[C@H](CCCNC(=N)N)NC(=O)[C@H](CC(C)C)NC(=O)[C@H](CCCCN)NC(=O)[C@H](CCCNC(=N)N)NC(=O)[C@H](CC(C)C)NC(=O)[C@@H](N)Cc1c[nH]cn1)[C@@H](C)CC)C(=O)N[C@@H](Cc1ccc(O)cc1)C(=O)N[C@@H](CO)C(=O)N[C@@H](CCC(=O)O)C(=O)N[C@@H](CS)C(=O)N[C@@H](CCCCN)C(=O)N[C@@H](Cc1c[nH]cn1)C(=O)N[C@@H](CC(C)C)C(=O)N[C@H](C(=O)N[C@@H](CCC(N)=O)C(=O)N[C@@H](CCC(=O)O)C(=O)O)[C@@H](C)CC [T-025] (H-HLRKLRKRLLRFEHWISGIYSECKHLIQE-OH; N-terminus and C-terminus assumed),EC50,"[1]; 3.16-100 μM peptides, 15 minutes",25.3 µM
same,DMPC solubilizing activity,[1]; FIGS. 2A-2D and 3A-3C,significant activity
same,GAG dependence of cholesterol import,HepG2 cells,rely on GAG binding for cholesterol import activity
